Laboratory results: patent publication US7438931B2, “Methods and compositions for the treatment of angiogenic diseases” (The Regents of The University of Michigan, priority 1998, dated 2008)
Where “and” joins values, the source holds several entries; their conditions need not be identical. Equal entries are not always repeated.

Legend:
[1] = for eight weeks; cited from earlier work
[2] = tested on: copper metabolism; test: Open label study of TM for initial treatment of Wilson's disease patients; assay type: in vivo, human
From the text: The inventors have carried out an open label study of the use of TM for initial treatment of neurologically presenting Wilson's disease patients for the past several years. The inventors have developed both a spectrophotometric and bioassay for the activity of the drug, to evaluate stability, and assure potency of the drug being administered (Brewer et al., 1991a; Brewer et al., 1994b). The drug slowly loses potency when exposed to air.
The inventors have now treated a total of 51 Wilson's disease patients with TM, all of whom presented with neurological or psychiatric disease, in an open label study. These patients were all diagnosed by standard criteria. […] Some of them were treated briefly with other agents prior to this trial. Two patients had psychiatric but not neurological symptoms.
With three exceptions in the earliest part of the study, all patients received a dose of 20 mg tid with meals, or qid with three meals and a snack. Thus, the only difference between a patient receiving 120 mg and 140 mg total dose is that the former was receiving 20 mg tid, or 60 mg, with meals, and the latter was receiving 20 mg qid, or 80 mg with meals plus a snack. The rest of the total daily dose was divided up into three equal doses and given between meals.
TM impacts quickly and favorably on copper metabolism, reducing the potentially toxic copper of the blood and theoretically, the rest of the body. The primary clinical objective is to gain control over copper toxicity while not allowing clinical worsening. In other words, the prime objective is to protect all neurological function that is present at the time therapy is started. This was evaluated weekly by quantitative neurological and speech exams. Methodology and the neurology rating scale system have been published (Young et al., 1986). During the weeks of TM administration, during which copper metabolism is being controlled, neurological function as evaluated by quantitative neurological exam, is protected.

[3] = Stability of sucrose-TM complex vs pure TM in open air (OD467); assay type: physicochemical; details: after 3 months of storage in an open dish
Protocol: An example of such a stabilized thiomolybdate compound is tetrathiomolybdate stabilized by sucrose. To prepare the sucrose-ammonium tetrathiomolybdate complex, 25 grams of sucrose is dissolved in 20 ml of distilled water. 1 gram of ammonium tetrathiomolybdate (TM) is added and the mixture stirred under argon until the TM is solution. The water is then removed from the mixture by flash evaporation under high vacuum.
After 3 months of storage in an open dish, the sucrose powder retained 61% of the original drug as measured by the OD467, while the TM stored under the same conditions retained only 5% of its original OD467.

[4] = tested on: metastatic solid tumors; test: Phase I trial: clinical and radiologic response of metastatic cancer; assay type: in vivo, human
From the text: Patients with effusions or bone marrow involvement as the only manifestations of disease, and those who had severe intercurrent illness requiring intensive management or were transfusion dependent, were excluded. […] Other requirements were demonstrable progression of disease in the previous 3 months, after standard treatments such as surgery, chemotherapy, radiotherapy, and/or immunotherapy, or progressive disease after declining conventional treatment modalities.
Six patients were to be enrolled at each dose level. After 4 patients were enrolled at level I, if one patient experienced dose-limiting toxicity (DLT) (defined as Hct<80% of baseline), 2 more patients were enrolled at level I. If no DLT was observed, patients were enrolled at the next dose level. Treatment was allowed to continue beyond induction of target copper deficiency, if the patients experienced a partial or complete clinical response or achieved clinical stable disease by the following definitions. Complete response is defined as the disappearance of all clinical and laboratory signs and symptoms of active disease. Partial response is defined as a 50% or greater reduction in the size of measurable lesions defined by the sum of the products of the longest perpendicular diameters of the lesions, with no new lesions or lesions increasing in size. Minor response is defined as a 25-49% reduction in the sum of the products of the longest perpendicular diameters of one or more measurable lesions, no increase in size of any lesions and no new lesions; stable disease is any change in tumor measurements not represented by the criteria for response or progressive disease, which is defined as an increase of 25% or more in the sum of the products of the longest perpendicular diameters of any measurable indicator lesions, compared to the smallest previous measurement or appearance of a new lesion. Because copper deficiency is not a cytotoxic treatment modality, the patients who provide information about the efficacy of TM for long-term therapy, in this population of patients with advanced cancer, are primarily those who remained within the target Cp window of (20±10)% of baseline for over 90 days, without disease progression
Extent of disease was evaluated at entry, at the point of achievement of copper deficiency, defined as Cp at or below 20% of baseline, and every 10-12 weeks thereafter. Computer-assisted tomography or magnetic resonance imaging were used as appropriate for conventional measurement of disease at all known sites and for evaluation of any potential new sites of disease. Angiogenesis-sensitive ultrasound with 3-dimensional Doppler analyses was employed in select cases, as adjunct to conventional imaging, to evaluate the blood flow to the tumors at different time points.
Blood flow was measured by ultrasound in select patients with accessible lesions, at the time they became copper deficient, and at variable intervals of 8-16 weeks thereafter. 3D scanning was performed on a GE Logiq 700 ultrasound system, with the 739L, 7.5 MHz linear array scanhead. The scanning and vascularity quantification techniques were as previously described (Carson et al., 1998; LeCarpentier et al., 1999).

[5] = Water solubility
[6] = among the seven anemia patients
[7] = Target Cp >90 days, + = on therapy

tetrathiomolybdate [TM]
potency retained in gelatin capsules [1]: at least 90%
cases of reversible anemia ([2]; 45 patients treated eight weeks with TM as initial therapy): 11.1%
patients with reduction in platelet count [2, 6]: Three
patients with reduction in white blood cell count [2, 6]: four
patients with overtreatment ([2]; dose of 180 mg/day or over): 6 of 37
patients with overtreatment ([2]; dose of 150 or lower): 1 of 13
time to close the plasma copper-molybdenum gap (free copper reduced to zero) ([2]; first patient, tid with meals 7 days, then also tid between meals): 16 days
patients with elevation of transaminase values (serum AST and ALT) ([2]; human, in vivo): four
patients with reversible anemia/bone marrow depression ([2]; human, in vivo): seven
quantitative speech exam scores ([2]; initial 8 weeks of TM therapy): No patient shows significant (more than 2.0 units) reduction in scores
TCA soluble fraction of plasma copper ([2]; late stages of TM therapy, starting value 27): 15 µg/dL
fall in hemoglobin, average ([2]; patients with anemia): 3.4 g %
patients with neurological worsening (change of more than 5 units) ([2]; weeks of TM administration, quantitative neurological exam): 4 % of the sample
retained % of the original drug as measured by the OD467 [3]: 5%
duration of stable disease, patient with previously untreated metastatic breast cancer ([4]; TM alone): over 6 months
No. of Patients: Disease progression ([4]; Target Cp <90 days): 7
No. of Patients: Stable disease with partial regression of lung lesions ([4]; Target Cp <90 days): 1
Duration of Cu Deficiency: Stable disease with partial regression of lung lesions ([4]; Target Cp <90 days, + = on therapy): 49+ days
No. of Patients: Disease progression at one site, stable elsewhere ([4]; Target Cp >90 days): 1/6
No. of Patients: Stable disease ([4]; Target Cp >90 days): 4/6
No. of Patients: Stable disease with partial regression of lung lesions ([4]; Target Cp >90 days): 1/6
Duration of Cu Deficiency: Stable disease, individual patients ([4]; Target Cp >90 days, * = patient discontinued therapy, + = on therapy): 159 days and 329 days and 351 days and 413 days
Duration of Cu Deficiency (Average): Stable disease [4, 7]: 313 days
Duration of Cu Deficiency: Disease progression at one site, stable elsewhere [4, 7]: 120+ days
Duration of Cu Deficiency: Stable disease with partial regression of lung lesions [4, 7]: 120+ days
disease status, patient with metastatic chondrosarcoma ([4]; long-term therapy): stable disease after 12 months of copper deficiency
lung lesions in two patients with stable disease ([4]; observation periods at target Cp of 120 and 49 days): complete disappearance of some lung lesions and decrease in size of other lung lesions
patients with stable disease ([4]; patients copper deficient at the target range for at least 90 days): 5 out of 6 and 5/6
disease progression after discontinuation of TM therapy ([4]; patients removed from protocol): much more rapid rates of progression of disease
decrease in blood flow to tumor mass by 3D-ultrasound ([4]; rib metastasis from renal cell carcinoma, approximately 8 weeks after reaching target copper deficiency): 4.4 fold
water solubility [5]: moderately water soluble
